# In US20120207862A1, “ORAL INHIBITORS OF AGE-RELATED NADH OXIDASE (arNOX), COMPOSITIONS AND NATURAL SOURCES” (priority 2010, published 2012):
# Several values for one entry are separate records, joined by “and”; a condition that tells them apart may be missing. Equal values may be shown once. Entries after “also recorded” stand apart in the source; their conditions may differ. Read-outs that look alike come from different tables or passages of the source.
# Key:
# arNOX [1] = assay: arNOX inhibition assay (superoxide-dependent reduction of ferric cytochrome c); assay type: biochemical, human
# Experimental: Reduction of ferric cytochrome c by superoxide was employed as a standard measure of superoxide formation (Mayo, L. A. and Curnutte, J., 1990, Meth. Enzyme. 186:567-575; Butler, J. et al., 1982, J. Biol. Chem. 257:10747-10750). This is a widely accepted method when coupled to superoxide dismutase inhibition for the measurement of superoxide generation. The assay consists of 150 μl buffy coats in PBSG buffer (8.06 g NaCl, 0.2 g KCl, 0.18 g Na2HPO4, 0.13 g CaCl2, 0.1. g MgCl2, 1.35 g glucose dissolved in 1000 ml deionized water, adjusted to pH 7.4, filtered and stored at 4° C.). Rates were determined using an SLM Aminco DW-2000 spectrophotometer (Milton Roy, Rochester, N.Y., USA) in the dual wave length mode of operation with continuous measurements over 1 min every 1.5 min. After 45 min, test compounds were added and the reaction was continued for an additional 45 min. After 45 min, a millimolar extinction coefficient of 19.1 cm^−1 was used for reduced ferricytochrome c. Extracts were made of the potentially inhibitory compounds in water unless otherwise indicated.
# Infusions are prepared by adding 125 mg material (for herbs or spices, dry weight) to 1 ml boiling water. The solutions are allowed to cool slowly and steep at room temperature overnight. Pure compounds (gallic acid, apigenin, derivatives of benzoic acid) are prepared as 100 mM stock solutions in water, ethanol or DMSO, depending on solubility in a particular liquid.
# Tinctures are prepared by adding […] of material (fresh weight) to 1 ml ethanol and allowed to steep overnight (or from about 3-30 hours, about 6-24, or about 12-20 or about 18 hours). Insoluble and particulate material is allowed to sediment, and the soluble material is decanted. Tinctures, infusions and stock solutions of pure compounds are tested undiluted, diluted 1:10, 1:100 and 1:1000 to determine EC50 (the dose which causes 50% inhibition of arNOX activity). For tinctures or infusions, aliquots of 60 μl are added to 2.5 ml arNOX assay. For stock solutions (undiluted or diluted), aliquots of 2.5 μl are added to 2.5 ml arNOX assay. For example, addition of an undiluted 100 mM stock solution results in a final concentration of 100 μM in the assay.
# arNOX [2] = system: T1, arNOX; assay: as above; assay type: biochemical, human; conditions: read-out: EC50 (dose which causes 50% inhibition of arNOX activity)
# T1 construct: other: infusion; human saliva
# arNOX [3] = conditions: Morré et al., 2008, BioFactors 32:231-235; cited from earlier work
# Solubility in water = assay type: physicochemical
# salivary arNOX = assay: Kinetics of salivary arNOX inhibition after oral administration to a volunteer; assay type: in vivo, human; conditions: single oral dose at time 0 h, subject
# Experimental: To determine the kinetics of arNOX inhibition, capsules containing 350 to 700 mg of selected seasonings and active ingredients were administered orally to a volunteer and the arNOX activity of collected saliva was analyzed serially. arNOX activity of saliva and sera correlate closely (FIG. 14) such that salivary arNOX is reflective of the inhibition of serum arNOX.
compound,measurement,setting,value
"Cc1cc(C)cc(C(=O)O)c1 [3,5-dimethylbenzoic acid]",arNOX inhibition (in words),arNOX [1],most inhibitory
same,EC50,arNOX [2],200 nM
COC1=C(OC)C(=O)C(C/C=C(\C)CC/C=C(\C)CC/C=C(\C)CC/C=C(\C)CC/C=C(\C)CC/C=C(\C)CC/C=C(\C)CCC=C(C)C)=C(C)C1=O [CoQ8],inhibition of arNOX activity of aging cells,arNOX [3],inhibited
COC1=C(OC)C(=O)C(C/C=C(\C)CC/C=C(\C)CC/C=C(\C)CC/C=C(\C)CC/C=C(\C)CC/C=C(\C)CC/C=C(\C)CC/C=C(\C)CCC=C(C)C)=C(C)C1=O [CoQ9],inhibition of arNOX activity of aging cells,arNOX [3],inhibited
COC1=C(OC)C(=O)C(C/C=C(\C)CC/C=C(\C)CC/C=C(\C)CC/C=C(\C)CC/C=C(\C)CC/C=C(\C)CC/C=C(\C)CC/C=C(\C)CC/C=C(\C)CCC=C(C)C)=C(C)C1=O [CoQ10],inhibition of arNOX activity of aging cells,arNOX [3],inhibited
"Oc1ncnc2[nH]ncc12 [allopuranol, reference compound]",arNOX inhibition (in words),arNOX [1],inhibited arNOX to varying degrees
"O=c1cc(-c2ccc(O)cc2)oc2cc(O)cc(O)c12 [apigenin aglycone, apigenin]",inhibition of arNOX activity at 10 μM,"arNOX [1]; 10 μM, supplied as DMSO solution",inhibited arNOX activity
same,water solubility,Solubility in water,insoluble in water
same,water solubility,Solubility in water; listed as apigenin,low water solubility
"O=C(O)c1cc(O)c(O)c(O)c1 [gallic acid, 3,4,5-trihydroxybenzoic acid]",arNOX inhibition (in words),arNOX [1],active
same,effective final concentration,arNOX [1],0.14 μM and 10 ng/mL
same,maximum inhibition of salivary arNOX,salivary arNOX,84%
same,time of maximum inhibition of salivary arNOX,salivary arNOX,8 h
O[C@H]1[C@H](O)[C@@H](O)[C@H](O)[C@@H](O)[C@H]1O [inositol],arNOX inhibition (in words),arNOX [1],inhibited arNOX to varying degrees
O=P(O)(O)O[C@H]1[C@H](OP(=O)(O)O)[C@@H](OP(=O)(O)O)[C@H](OP(=O)(O)O)[C@@H](OP(=O)(O)O)[C@H]1OP(=O)(O)O [phytic acid],arNOX inhibition (in words),arNOX [1],inhibited arNOX to varying degrees
"OCc1ccccc1O[C@@H]1O[C@H](CO)[C@@H](O)[C@H](O)[C@H]1O [salicin, reference compound]",arNOX inhibition (in words),arNOX [1],inhibited arNOX to varying degrees
same,type of arNOX inhibition from kinetic data,arNOX [1]; FIG. 1,competitive inhibitor
(±)-catechin,arNOX inhibition (in words),arNOX [1],inhibits arNOX; also recorded: potent arNOX inhibitor
same,effective final concentration,arNOX [1],100 μM and 300 ng/mL
